For 27 molecules, IC50 and IC90 results are on record in PubChem BioAssay AID449764 (Southern Research Specialized Biocontainment Screening …, 2010).

The test system of the assay is Mycobacterium tuberculosis H37Rv growth inhibition, no glycerol. Description: Mycobacterium tuberculosis H37Rv growth inhibition, no glycerol, confirmatory dose response (AID 449764).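 As to all read-outs here: growth read after 7 days of incubation.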 The conditions noted are these: for IC90: measured here: IC90 growth inhibition.

For orientation: IC50 means the concentration needed to halve the response being measured. By IC90 is commonly meant the concentration at which the effect reaches the 90% level. Read a high IC90 as weaker potency. Turning to `CC(C)CCNC(=O)C(c1ccc(O)cc1)N(C(=O)C1COc2ccccc2O1)c1cccc(O)c1` (centres undefined), the IC50 is 71.6 µM and the IC90 is over 100 µM.

For the molecule `Cc1cc(C)n(-c2nc(NCCN(C)C)c3c4c(sc3n2)CCCC4)n1`, the IC50 is 15.6 µM and the IC90 turned out to be 21.4 µM.

In the case of `CCOC(=O)CSc1nnc(SCCN2C(=O)c3ccccc3C2=O)s1`, the IC50 was 8.73 µM and the IC90 came out at 22.4 µM.

With `N#C/C(=C\c1ccc(-c2ccc(Br)cc2)o1)C(=O)NCCc1c[nH]c2ccccc12`, the IC50 is 97.5 µM and the IC90 is over 100 µM.

Take `O=C(CCSc1ccccn1)c1ccccc1`: the IC50 was 24.6 µM and the IC90 was determined as 34.1 µM.

For `Cc1cccc(C2=N/C(=C\c3cccs3)C(=O)O2)c1`, the IC50 was 7.65 µM and the IC90 was over 100 µM.

In the case of `c1ccc2c(C3=NNC(=NC4CCCCC4)SC3)c[nH]c2c1`, the IC50 is 37.7 µM and the IC90 was 45.4 µM.

Turning to `CCOC(=O)N1CCC(N2Cc3cccc(C(=O)Nc4ccc(N(CC)CC)cc4C)c3C2=O)CC1`, the half-inhibitory concentration (IC50) is 35.3 µM and the concentration for an effect of 90% (IC90) was over 100 µM.

On to `CC1CCN(C(=O)c2ccc(-c3ccccc3Cl)o2)CC1`, for which the IC50 was 41 µM and the IC90 is 60.1 µM.

Turning to `CCN1/C(=C/c2ccc3cc(C)ccc3[n+]2CC)Sc2ccccc21`, the IC50 is 2.73 µM and the IC90 amounted to 3.07 µM.

Regarding `Cc1cccc(C(=O)OCC(=O)N2CCc3ccccc3C2)c1O`, the IC50 is 24.8 µM and the IC90 is over 25 µM.

As for `O=[N+]([O-])c1ccc(CN2CCN(c3ccc(Cl)cc3)CC2)o1`, the IC50 is 0.44 µM and the IC90 was over 100 µM.

For the molecule `CC(C)CNC(=S)NC(=O)c1csc([N+](=O)[O-])c1`, the IC50 is 22.2 µM and the IC90 was 53.7 µM.

In the case of `Oc1ccccc1NCC(O)Cn1ccc2ccccc21` (centres undefined), the IC50 was 11.5 µM and the 90% effect concentration (IC90) came to 12.3 µM.

Regarding `CC1=NN(c2ccc(C)c(C)c2)C(=O)/C1=C\C=C\c1ccc([N+](=O)[O-])o1`, the IC50 is 10.9 µM and the IC90 stood at 17.7 µM.

On to `CNC(CC(C)C)C(=O)NC1C(=O)NC(CC(N)=O)C(=O)NC2C(=O)NC3C(=O)NC(C(=O)NC(C(=O)O)c4cc(O)cc(O)c4-c4cc3ccc4O)C(O)c3ccc(c(Cl)c3)Oc3cc2cc(c3OC2OC(CO)C(O)C(O)C2OC2C[C@](C)(N)C(O)C(C)O2)Oc2ccc(cc2Cl)C1O` (some centres undefined), for which the IC50 was 4.52 µM and the IC90 stood at 16.9 µM.

Consider `COc1ccccc1OCCN1CSC(=S)N(C)C1`, for which the IC50 was 17.8 µM and the IC90 was 23.9 µM.

Turning to `COc1ccc(NS(=O)(=O)c2ccc3nc(COc4cccc5ccccc45)[nH]c3c2)cc1`, the IC50 was 62.3 µM and the IC90 was over 100 µM.

Consider `Cc1ccc(C(=O)C2CCN(CC(=O)Nc3nc(C)cs3)CC2)cc1`, for which the IC50 was 48.4 µM and the IC90 was 53.6 µM.

Take `O=S(=O)(Nc1ccc2[nH]ncc2c1)c1ccccc1Cl`: the IC50 is 11.3 µM and the IC90 turned out to be 17.1 µM.

Consider `CCOC(=O)C1CCN(CC(O)COc2ccc(C(C)(C)CC)cc2)CC1` (centres undefined), for which the IC50 was 23.2 µM and the IC90 was found to be 26.5 µM.

As for `CCOC(=O)COc1cc([N+](=O)[O-])cc2cccnc12`, the IC50 was 30.5 µM and the IC90 is 46.4 µM.

Regarding `CCN(CC)CCCNc1nc2cc(OC)c(OC)cc2c2nc(-c3ccccc3)nn12`, the IC50 was 11.1 µM and the IC90 came to 12.8 µM.

With `CCC(=O)c1ccc(OCC(O)CN2CCN(c3cccc(C(F)(F)F)c3)CC2)cc1` (centres undefined), the IC50 was 19.7 µM and the IC90 was found to be 26.7 µM.

In the case of `C=CCOc1ccc(C2C(C#N)=C(N)N(Nc3ccccc3)C3=C2C(=O)CC(C)(C)C3)cc1OC` (centres undefined), the IC50 was 41.3 µM and the IC90 is over 100 µM.

Take `CCN(CC)S(=O)(=O)c1ccc(/C=C/C(=O)OCC#N)cc1`: the IC50 was 23.3 µM and the concentration for an effect of 90% (IC90) stood at 47.2 µM.

As to `CCCOP(=O)(OCCC)c1c([N+](=O)[O-])cc(C(F)(F)F)cc1[N+](=O)[O-]`, the 50% inhibitory concentration (IC50) was 5.5 µM and the concentration for an effect of 90% (IC90) amounted to 7.7 µM.
